Data set [1] in a line: Thermodynamic solubility of the compound in phosphate buffer at pH 7.4 at 25 degC after 24 hrs. Particulars: read-out: Therm_solubility.
Data set [2] concerns the target Macrophage metalloelastase (Homo sapiens, UniProt P39900). The data set is described as follows: Inhibition of MMP-12 (unknown origin) by fluorescence assay.
The target of data set [3] is Matrix metalloproteinase-14 (Homo sapiens, UniProt P50281).
Data set [4] is described as follows: Elimination half life in mouse. Type of data set: ADME, organism-based. Particulars: in vivo, read-out: beta t1/2 (converted).
Data set [5] in a line: Clearance in rat at 2 mg/kg, iv. Type of data set: ADME, organism-based. The arrangement: dose 2 mg/kg, route intravenous. Conditions: in vivo.
Data set [6] can be described thus: Elimination half life in rat. Particulars: in vivo, read-out: beta t1/2 (converted). Type of data set: ADME, organism-based.
Data set [7] is described as follows: Half life in rat. Type of data set: ADME, organism-based. Conditions: in vivo.
Data set [8] can be described thus: Oral bioavailability in rat at 3 to 10 mg/kg. Type of data set: ADME, organism-based. Particulars: in vivo.
The nature of a further data set: in vitro. Conditions: human, liver microsomes. On the technique in general: Liver microsomes are vesicles of endoplasmic reticulum, rich in cytochrome P450 enzymes.
Data set [9] can be described thus: Volume of distribution at steady state in rat at 2 mg/kg, iv and 5 mg/kg, po. Type of data set: ADME, organism-based. Particulars: in vivo, read-out: Vdss.
Data set [10] in a line: Elimination half life in dog. The format is ADME, organism-based, Canis lupus familiaris. Particulars: in vivo, read-out: beta t1/2 (converted).

A word on the pIC50: it is the negative decadic logarithm of the IC50, by convention in mol/L. Low values mean a high IC50, high ones a low IC50. What is called clearance is the volume of plasma or blood freed of the substance per unit of time. A lower clearance goes with a low capacity for elimination. For orientation: bioavailability means the share of a dose that reaches the circulation, judged against a reference dose that is usually intravenous. A lower bioavailability goes with poor availability. The microsomal CLint is a measure of how fast metabolising enzymes remove a compound, apart from limits set by blood flow. Read a high microsomal CLint as faster metabolism.

pIC50: −log10 of the molar value. Values after ≈ are worked out from the molar mass of the structure shown.

Macrophage metalloelastase, sequence (P39900 whole entry): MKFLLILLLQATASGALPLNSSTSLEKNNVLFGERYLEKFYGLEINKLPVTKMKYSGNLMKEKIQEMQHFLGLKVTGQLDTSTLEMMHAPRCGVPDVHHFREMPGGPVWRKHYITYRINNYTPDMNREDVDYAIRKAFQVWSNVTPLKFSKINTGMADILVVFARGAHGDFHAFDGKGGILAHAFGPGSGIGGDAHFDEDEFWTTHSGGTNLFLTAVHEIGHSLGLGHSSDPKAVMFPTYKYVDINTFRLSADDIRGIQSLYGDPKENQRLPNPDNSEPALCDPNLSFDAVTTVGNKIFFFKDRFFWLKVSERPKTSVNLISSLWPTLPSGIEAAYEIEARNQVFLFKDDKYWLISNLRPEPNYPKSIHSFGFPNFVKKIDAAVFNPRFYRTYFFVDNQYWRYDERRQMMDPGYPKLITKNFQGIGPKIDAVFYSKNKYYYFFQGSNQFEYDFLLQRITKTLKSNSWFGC

For `C[C@]1(CS(=O)(=O)N2CCC(Oc3ccc(Cl)cc3)CC2)NC(=O)NC1=O`, in data set [1], the solubility thermodynamic at 24 h turned out to be 12 µM (≈ 4.82 µg/mL). The pIC50 in [2] is 8.05.
Compound `CCCOc1ccc(OC2CCN(S(=O)(=O)C[C@@]3(C)NC(=O)NC3=O)CC2)cc1` showed a negative logarithm of the IC50 (pIC50) in data set [3] below 5.00.
Consider `C[C@]1(CS(=O)(=O)N2CCC(Oc3ccc(OCc4ccncc4)cc3)CC2)NC(=O)NC1=O`, for which the solubility thermodynamic at 24 h in data set [1] came to 130 µM (≈ 61.7 µg/mL).
On to `C[C@]1(CS(=O)(=O)N2CCC(Oc3ccc(OCc4ccc(F)cc4)cc3)CC2)NC(=O)NC1=O`, for which the pIC50 in data set [3] was 5.11.
Turning to `Cc1cc(COc2cnc(N3CCN(S(=O)(=O)C[C@@]4(C)NC(=O)NC4=O)CC3)nc2)n(C)n1`, in [1], the solubility thermodynamic at 24 h stood at 32 µM (≈ 15.3 µg/mL).
Regarding `CCOc1ccc(OC2CCN(S(=O)(=O)C[C@@]3(C)NC(=O)NC3=O)CC2)cc1`, the pIC50 was 5.55 in data set [3] and 8.70 in data set [2]. Also, the solubility thermodynamic at 24 h in data set [1] was 15 µM (≈ 6.17 µg/mL).
Regarding `C[C@]1(CS(=O)(=O)N2CCC(Oc3ccc(OCc4cccc(C#N)c4)cc3)CC2)NC(=O)NC1=O`, in [1], the solubility thermodynamic at 24 h was determined as 4.4 µM (≈ 2.19 µg/mL).
As to `C[C@]1(CS(=O)(=O)N2CCC(Oc3ccc(OCc4ccc(S(C)(=O)=O)cc4)cc3)CC2)NC(=O)NC1=O`, the pIC50 in data set [3] was 7.21. In addition, the solubility thermodynamic at 24 h in [1] was found to be 3.1 µM (≈ 1.71 µg/mL).
For the compound `C[C@]1(CS(=O)(=O)N2CCN(c3ncc(OCc4cncs4)cn3)CC2)NC(=O)NC1=O`, the solubility thermodynamic at 24 h in [1] is 49 µM (≈ 22.9 µg/mL).
In the case of `C[C@]1(CS(=O)(=O)N2CCC(Oc3ccc(OC(F)(F)C(F)(F)F)cc3)CC2)NC(=O)NC1=O`, the pIC50 in data set [3] is below 5.00. Besides, the solubility thermodynamic at 24 h in data set [1] was below 2 µM.
As to `C[C@]1(CS(=O)(=O)N2CCN(c3ncc(OCc4cccc(C#N)c4)cn3)CC2)NC(=O)NC1=O`, the half-life in data set [4] was 5.8 h; in data set [6], 7.5 h; in [7], 7.5 h; in data set [10], 5.4 h. Also, the clearance in data set [5] was 1.09 L/h/kg. For the same compound, the bioavailability in [8] was found to be 51%. For the same compound, the solubility thermodynamic at 24 h in [1] was 66 µM (≈ 32 µg/mL). Moreover, in “in vitro”, the microsomal CLint was below 2 µL/min/mg. In addition, the Vd in [9] amounted to 0.5 L/kg.
Take `C[C@]1(CS(=O)(=O)N2CCN(c3ncc(OCc4cc(C(F)(F)F)no4)cn3)CC2)NC(=O)NC1=O`: the clearance in data set [5] was determined as 0.564 L/h/kg. The same compound showed a half-life in data set [7] of 3.3 h. In addition, in data set [1], the solubility thermodynamic at 24 h worked out at 3.1 µM (≈ 1.61 µg/mL). The Vd in data set [9] worked out at 0.5 L/kg.
`C[C@]1(CS(=O)(=O)N2CCC(Oc3ccc(OCc4ncccn4)cc3)CC2)NC(=O)NC1=O`: the solubility thermodynamic at 24 h in [1] stood at 560 µM (≈ 266 µg/mL).
In [3], `C[C@]1(CS(=O)(=O)N2CCC(Oc3ccc(OCC(F)(F)F)cc3)CC2)NC(=O)NC1=O` gave a pIC50 of 5.71. The solubility thermodynamic at 24 h in [1] was 34 µM (≈ 15.8 µg/mL).
`C[C@]1(CS(=O)(=O)N2CCN(c3ncc(OCc4ccc(F)cc4)cn3)CC2)NC(=O)NC1=O`: the clearance in data set [5] turned out to be 0.288 L/h/kg. Besides, the half-life in data set [7] is 1.9 h. Moreover, the solubility thermodynamic at 24 h in data set [1] stood at 16 µM (≈ 7.66 µg/mL). Also, the microsomal CLint in “in vitro” came to 16 µL/min/mg. For the same compound, in [9], the Vd was found to be 0.5 L/kg.
Compound `C[C@]1(CS(=O)(=O)N2CCC(Oc3ccc(OCCC(F)(F)F)cc3)CC2)NC(=O)NC1=O` had a pIC50 in data set [3] of 5.51. In addition, in [1], the solubility thermodynamic at 24 h came to 110 µM (≈ 52.7 µg/mL).
`C[C@]1(CS(=O)(=O)N2CCC(Oc3ccc(OCc4cnsn4)cc3)CC2)NC(=O)NC1=O`: the pIC50 in data set [3] is 6.46. In addition, in data set [1], the solubility thermodynamic at 24 h came out at 28 µM (≈ 13.5 µg/mL).

Values taken from ChEMBL document CHEMBL2407043, “Hydantoin based inhibitors of MMP13--discovery of AZD6605” (Bioorg Med Chem Lett, 2013).
